Literature values in patent US20050171131A1, “Diaminopyrimidine derivatives as growth hormone secrectgogue receptor (GHS-R) antagonists” (priority 2003, published 2005).
Non-standard residues stand in square brackets, D forms with d. No end group written: not given here.

[1] = repeated administration, ob/ob mice

Question: With H-H[dW][dK]W[dF]K [[D-Lys-3]-GHRP] as the substance, how does the energy intake (lean mice, mice with diet induced obesity, ob/ob obese mice) read?
Answer: decrease energy intake

Question: And the “rate of gastric emptying” value (mice)?
Answer: reduced the rate of gastric emptying

Question: And the body weight [1]?
Answer: decreased body weight

Question: And the glycemic control [1]?
Answer: improved glycemic control
